According to patent US20140171429A1, “BICYCLIC INHIBITORS OF ALK” (ABBVIE INC., priority 2011, published 2014):

target: T1, ALK (Homo sapiens, UniProt Q9UM73); test: ALK kinase assay (HTRF_ALK); format: biochemical; details: apparent Ki converted from IC50 by the Cheng-Prusoff relationship; ALK (Millipore), 50 μM ATP, 1 h at room temperature
T1 construct: purchased Millipore
T1 sequence (Q9UM73 19-1620): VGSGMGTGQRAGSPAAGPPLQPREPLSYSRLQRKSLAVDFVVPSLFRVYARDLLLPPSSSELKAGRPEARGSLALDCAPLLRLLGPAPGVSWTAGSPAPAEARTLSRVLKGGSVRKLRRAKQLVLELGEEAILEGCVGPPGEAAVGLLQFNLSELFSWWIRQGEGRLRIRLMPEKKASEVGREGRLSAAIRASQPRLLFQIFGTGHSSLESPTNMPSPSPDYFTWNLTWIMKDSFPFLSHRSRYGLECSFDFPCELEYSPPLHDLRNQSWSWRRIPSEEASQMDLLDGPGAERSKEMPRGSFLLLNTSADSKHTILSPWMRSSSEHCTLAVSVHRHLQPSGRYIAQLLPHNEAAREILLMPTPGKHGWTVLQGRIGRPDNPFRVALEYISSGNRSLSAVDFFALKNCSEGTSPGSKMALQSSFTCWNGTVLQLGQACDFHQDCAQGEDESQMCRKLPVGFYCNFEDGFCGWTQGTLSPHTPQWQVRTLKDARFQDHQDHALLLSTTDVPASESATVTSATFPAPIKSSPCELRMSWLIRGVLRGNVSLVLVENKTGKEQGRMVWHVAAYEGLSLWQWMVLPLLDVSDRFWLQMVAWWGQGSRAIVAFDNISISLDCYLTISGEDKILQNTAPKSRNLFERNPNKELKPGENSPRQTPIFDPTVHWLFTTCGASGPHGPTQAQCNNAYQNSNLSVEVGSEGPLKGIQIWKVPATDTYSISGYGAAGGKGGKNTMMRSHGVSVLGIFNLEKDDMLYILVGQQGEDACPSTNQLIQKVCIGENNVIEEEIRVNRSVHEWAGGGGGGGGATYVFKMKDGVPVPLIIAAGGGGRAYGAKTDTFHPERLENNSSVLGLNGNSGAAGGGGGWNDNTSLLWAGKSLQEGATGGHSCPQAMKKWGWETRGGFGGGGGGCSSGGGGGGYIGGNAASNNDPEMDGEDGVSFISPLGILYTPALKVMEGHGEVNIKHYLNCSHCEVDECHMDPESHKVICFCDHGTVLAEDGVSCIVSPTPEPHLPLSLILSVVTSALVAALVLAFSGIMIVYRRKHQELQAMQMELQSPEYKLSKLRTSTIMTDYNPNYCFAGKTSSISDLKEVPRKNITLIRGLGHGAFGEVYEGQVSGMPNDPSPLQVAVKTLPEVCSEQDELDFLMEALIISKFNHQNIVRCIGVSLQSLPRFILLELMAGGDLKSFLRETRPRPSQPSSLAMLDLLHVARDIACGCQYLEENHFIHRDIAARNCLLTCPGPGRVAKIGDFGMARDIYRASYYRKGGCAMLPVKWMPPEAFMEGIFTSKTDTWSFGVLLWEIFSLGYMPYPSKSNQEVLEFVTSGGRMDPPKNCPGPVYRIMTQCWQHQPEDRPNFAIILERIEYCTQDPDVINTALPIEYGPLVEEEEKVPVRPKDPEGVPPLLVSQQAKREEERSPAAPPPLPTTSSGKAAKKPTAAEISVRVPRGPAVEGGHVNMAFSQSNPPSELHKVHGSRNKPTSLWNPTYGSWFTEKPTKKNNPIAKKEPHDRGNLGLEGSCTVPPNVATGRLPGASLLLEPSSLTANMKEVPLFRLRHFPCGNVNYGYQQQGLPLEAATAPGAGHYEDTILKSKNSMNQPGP

Row | SMILES | Ki [µM]
1 | O=c1[nH]ccc2nc(Cc3c(Cl)cccc3Cl)nc(Nc3ccc(N4CCNCC4)cc3)c12 [Example 15, 2-(2,6-dichlorobenzyl)-4-{[4-(piperazin-1-yl)phenyl]amino}pyrido[4,3-d]pyrimidin-5(6H)-one] | 1.45
2 | O=c1[nH]cnc2cc(Cc3c(Cl)cccc3Cl)nc(Nc3ccc(N4CCNCC4)cc3)c12 [Example 7, 7-(2,6-dichlorobenzyl)-5-{[4-(piperazin-1-yl)phenyl]amino}pyrido[4,3-d]pyrimidin-4(3H)-one] | 0.01
3 | COc1cc(C(=O)N2CCN(C)CC2)ccc1Nc1nc(Cc2c(Cl)cccc2Cl)cc2cc[nH]c(=O)c12 [Example 17, 6-(2,6-dichlorobenzyl)-8-({2-methoxy-4-[(4-methylpiperazin-1-yl)carbonyl]phenyl}amino)-2,7-naphthyridin-1(2H)-one] | > 1
4 | COc1cc(N2CCN(C)CC2)ccc1Nc1cc(Cc2c(Cl)cccc2Cl)nc2cc[nH]c(=O)c12 [Example 1, 2-(2,6-dichlorobenzyl)-4-{[2-methoxy-4-(4-methylpiperazin-1-yl)phenyl]amino}-1,6-naphthyridin-5 (6H)-one] | 0.008
5 | COc1cc(C(=O)NCCN(C)C)ccc1Nc1cc(Cc2c(Cl)cccc2Cl)nc2cc[nH]c(=O)c12 [Example 23, 4-{[2-(2,6-dichlorobenzyl)-5-oxo-5,6-dihydro-1,6-naphthyridin-4-yl]amino}-N-[2-(dimethylamino)ethyl]-3-methoxybenzamide] | 0.012
6 | COc1cc(N2CCNCC2)ccc1Nc1nc(Cc2c(Cl)cccc2Cl)cc2cc[nH]c(=O)c12 [Example 8, 6-(2,6-dichlorobenzyl)-8-{[2-methoxy-4-(piperazin-1-yl)phenyl]amino}-2,7-naphthyridin-1(2H)-one] | 0.003
7 | COc1cc(C(=O)N2CCNCC2)ccc1Nc1cc(Cc2c(Cl)cccc2Cl)nc2cc[nH]c(=O)c12 [Example 29, 2-(2,6-dichlorobenzyl)-4-{[2-methoxy-4-(piperazin-1-ylcarbonyl)phenyl]amino}-1,6-naphthyridin-5(6H)-one] | 0.011
8 | COc1cc(C(=O)NCCCCN(C)C)ccc1Nc1cc(Cc2c(Cl)cccc2Cl)nc2cc[nH]c(=O)c12 [Example 30, 4-{[2-(2,6-dichlorobenzyl)-5-oxo-5,6-dihydro-1,6-naphthyridin-4-yl]amino}-N-[4-(dimethylamino)butyl]-3-methoxybenzamide] | 0.02
9 | COc1cc(N2CCNCC2)ccc1Nc1nc(Cc2c(Cl)cccc2Cl)nc2cc[nH]c(=O)c12 [Example 14, 2-(2,6-dichlorobenzyl)-4-{[2-methoxy-4-(piperazin-1-yl)phenyl]amino}pyrido[4,3-d]pyrimidin-5(6H)-one] | 0.084
10 | COc1cc(C(=O)NCCN2CCCCC2)ccc1Nc1nc(Cc2c(Cl)cccc2Cl)cc2cc[nH]c(=O)c12 [Example 27, 4-{[3-(2,6-dichlorobenzyl)-8-oxo-7,8-dihydro-2,7-naphthyridin-1-yl]amino}-3-methoxy-N-[2-(piperidin-1-yl)ethyl]benzamide] | 0.017
11 | O=c1[nH]ccc2cc(Cc3c(F)cccc3Cl)nc(Nc3ccc(N4CCNCC4)cc3)c12 [Example 16, 6-(2-chloro-6-fluorobenzyl)-8-{[4-(piperazin-1-yl)phenyl]amino}-2,7-naphthyridin-1(2H)-one] | 0.48
12 | COc1cc(C(=O)NCCN2CCCCC2)ccc1Nc1cc(Cc2c(Cl)cccc2Cl)nc2cc[nH]c(=O)c12 [Example 24, 4-{[2-(2,6-dichlorobenzyl)-5-oxo-5,6-dihydro-1,6-naphthyridin-4-yl]amino}-3-methoxy-N-[2-(piperidin-1-yl)ethyl]benzamide] | 0.008
13 | COc1cc(N2CCNCC2)ccc1Nc1cc(Cc2c(Cl)cccc2Cl)nc2nc[nH]c(=O)c12 [Example 11, 7-(2,6-dichlorobenzyl)-5-{[2-methoxy-4-(piperazin-1-yl)phenyl]amino}pyrido[2,3-d]pyrimidin-4(3H)-one] | 0.07
14 | COc1cc(C(=O)NCCCN2CCOCC2)ccc1Nc1cc(Cc2c(Cl)cccc2Cl)nc2cc[nH]c(=O)c12 [Example 18, 4-{[2-(2,6-dichlorobenzyl)-5-oxo-5,6-dihydro-1,6-naphthyridin-4-yl]amino}-3-methoxy-N-[3-(morpholin-4-yl)propyl]benzamide] | 0.051
15 | O=c1[nH]ccc2nc(Cc3c(Cl)cccc3Cl)cc(Nc3ccc(N4CCNCC4)cc3)c12 [Example 3, 2-(2,6-dichlorobenzyl)-4-{[4-(piperazin-1-yl)phenyl]amino}-1,6-naphthyridin-5(6H)-one] | 0.072
16 | COc1cc(N2CCNCC2)ccc1Nc1nc(Cc2c(Cl)cccc2Cl)cc2nc[nH]c(=O)c12 [Example 6, 7-(2,6-dichlorobenzyl)-5-{[2-methoxy-4-(piperazin-1-yl)phenyl]amino}pyrido[4,3-d]pyrimidin-4(3H)-one] | 0.006

Row | SMILES | Ki [µM]
17 | COc1cc(C(=O)NCCN2CCN(C)CC2)ccc1Nc1cc(Cc2c(Cl)cccc2Cl)nc2cc[nH]c(=O)c12 [Example 25, 4-{[2-(2,6-dichlorobenzyl)-5-oxo-5,6-dihydro-1,6-naphthyridin-4-yl]amino}-3-methoxy-N-[2-(4-methylpiperazin-1-yl)ethyl]benzamide] | 0.022
18 | COc1cc(C(=O)NCCN2CCN(C)CC2)ccc1Nc1nc(Cc2c(Cl)cccc2Cl)cc2cc[nH]c(=O)c12 [Example 26, 4-{[3-(2,6-dichlorobenzyl)-8-oxo-7,8-dihydro-2,7-naphthyridin-1-yl]amino}-3-methoxy-N-[2-(4-methylpiperazin-1-yl)ethyl]benzamide] | 0.212
19 | COc1cc(C(=O)NCCCCN(C)C)ccc1Nc1nc(Cc2c(Cl)cccc2Cl)cc2cc[nH]c(=O)c12 [Example 28, 4-{[3-(2,6-dichlorobenzyl)-8-oxo-7,8-dihydro-2,7-naphthyridin-1-yl]amino}-N-[4-(dimethylamino)butyl]-3-methoxybenzamide] | 0.036
20 | COc1cc(N2CCNCC2)ccc1Nc1cc(Cc2ccccc2Cl)nc2cc[nH]c(=O)c12 [Example 31, 2-(2-chlorobenzyl)-4-{[2-methoxy-4-(piperazin-1-yl)phenyl]amino}-1,6-naphthyridin-5(6H)-one] | 0.007
21 | COc1cc(N2CCN(C)CC2)ccc1Nc1nc(Cc2c(Cl)cccc2Cl)cc2cc[nH]c(=O)c12 [Example 4, 6-(2,6-dichlorobenzyl)-8-{[2-methoxy-4-(4-methylpiperazin-1-yl)phenyl]amino}-2,7-naphthyridin-1(2H)-one] | 0.064
22 | COc1cc(N2CCC(N(C)C)CC2)ccc1Nc1nc(Cc2c(Cl)cccc2Cl)cc2cc[nH]c(=O)c12 [Example 10, 6-(2,6-dichlorobenzyl)-8-({4-[4-(dimethylamino)piperidin-1-yl]-2-methoxyphenyl}amino)-2,7-naphthyridin-1(2H)-one] | 0.18
23 | O=c1[nH]ccc2nc(Cc3c(Cl)cccc3Cl)cc(Nc3ccc(N4CCNCC4)c(F)c3)c12 [Example 13, 2-(2,6-dichlorobenzyl)-4-(3-fluoro-4-(piperazin-1-yl)phenylamino)-1,6-naphthyridin-5(6H)-one] | 0.003
24 | COc1cc(N2CCN(C)CC2)ccc1Nc1nc(Cc2c(Cl)cccc2Cl)cc2nc[nH]c(=O)c12 [Example 5, 7-(2,6-dichlorobenzyl)-5-{[2-methoxy-4-(4-methylpiperazin-1-yl)phenyl]amino}pyrido[4,3-d]pyrimidin-4(3H)-one] | 0.007
25 | COc1cc(N2CCNCC2)ccc1Nc1cc(Cc2c(Cl)cccc2Cl)nc2cc[nH]c(=O)c12 [Example 2, 2-(2,6-dichlorobenzyl)-4-{[2-methoxy-4-(piperazin-1-yl)phenyl]amino}-1,6-naphthyridin-5(6H)-one] | 0.004
26 | COc1cc(C(=O)NCCN2CCCC2)ccc1Nc1cc(Cc2c(Cl)cccc2Cl)nc2cc[nH]c(=O)c12 [Example 21, 4-{[2-(2,6-dichlorobenzyl)-5-oxo-5,6-dihydro-1,6-naphthyridin-4-yl]amino}-3-methoxy-N-[2-(pyrrolidin-1-yl)ethyl]benzamide] | 0.025
27 | COc1cc(N2CCNCC2)ccc1Nc1nc(Cc2c(Cl)cccc2Cl)nc2nc[nH]c(=O)c12 [Example 12, 7-(2,6-dichlorobenzyl)-5-{[2-methoxy-4-(piperazin-1-yl)phenyl]amino}pyrimido[4,5-d]pyrimidin-4(3H)-one] | 0.013
28 | COc1cc(C(=O)N2CCN(C)CC2)ccc1Nc1cc(Cc2c(Cl)cccc2Cl)nc2cc[nH]c(=O)c12 [Example 20, 2-(2,6-dichlorobenzyl)-4-({2-methoxy-4-[(4-methylpiperazin-1-yl)carbonyl]phenyl}amino)-1,6-naphthyridin-5(6H)-one] | 0.051
29 | COc1cc(C(=O)NCCCN2CCOCC2)ccc1Nc1nc(Cc2c(Cl)cccc2Cl)cc2cc[nH]c(=O)c12 [Example 19, 4-{[3-(2,6-dichlorobenzyl)-8-oxo-7,8-dihydro-2,7-naphthyridin-1-yl]amino}-3-methoxy-N-[3-(morpholin-4-yl)propyl]benzamide] | 0.025
30 | O=c1[nH]ccc2cc(Cc3c(Cl)cccc3Cl)nc(Nc3ccc(N4CCNCC4)cc3)c12 [Example 9, 6-(2,6-dichlorobenzyl)-8-{[4-(piperazin-1-yl)phenyl]amino}-2,7-naphthyridin-1(2H)-one] | 0.014
31 | COc1cc(C(=O)NCCN2CCCC2)ccc1Nc1nc(Cc2c(Cl)cccc2Cl)cc2cc[nH]c(=O)c12 [Example 22, 4-{[3-(2,6-dichlorobenzyl)-8-oxo-7,8-dihydro-2,7-naphthyridin-1-yl]amino}-3-methoxy-N-[2-(pyrrolidin-1-yl)ethyl]benzamide] | 0.054
